Laboratory results as given in publication PMC8619920, “New Polyesterified Ursane Derivatives from Leaves of Maesa membranacea and Their Cytotoxic Activity” (Molecules, 2021).

How the values were obtained:
Format in all cases: cell-based
[1] = system: PNT-2 human normal prostate epithelium cells; experiment: Cytotoxicity, LDH assay, PNT-2 cells; conditions: Homo sapiens, PNT2; 24 h treatment, 5–100 μg/mL
Procedure: (§1) Cytotoxic activity was tested on human cancer and normal cells, grouped in three panels, namely: prostate, skin and gastrointestinal. The prostate panel consisted of prostate cancer cell lines Du145 (ATCC HTB-81) and PC3 (ATCC CRL-1435), and prostate epithelial cells PNT-2 (ECACC 95012613). Melanoma cell lines A375 (ATCC CRL-1619) and HTB140 (ATCC Hs 294T) together with skin keratinocytes HaCaT (obtained as a kind gift of prof. Marta Michalik, Department of Cell Biology, Jagiellonian University, Kraków, Poland) were included into the skin panel. The gastrointestinal panel of cells comprised colon cancer cell lines Caco-2 (ATCC HTB-37) and HT29 (ATCC HTB-38). Du145 cells were grown in Modified Eagle’s Medium with low (1.0 g/L) glucose concentration, HT29, PC3 and PNT-2 cells in Dulbecco’s Modified Eagle’s Media: F12 HAM Nutrient Mixture, Caco-2 in Modified Eagle’s Medium with NEAA (no-essential amino acids) while melanoma cells and keratinocytes were maintained in Modified Eagle’s Medium with high (4.5 g/L) glucose concentration. The culture media (all supplied by Sigma-Aldrich Co.; St. Louis, MO, USA) contained antibiotics and 10% fetal bovine serum (FBS). All cultures were maintained at 37 °C, in a humidified, 5% CO2 containing, atmosphere.
(§2) The examined triterpenes were diluted in the culture media from freshly made stock solutions in MeOH (10 mg/mL) to the working concentrations (from 0 to 100 μg/mL).
(§3) Cell viability was determined as it was described previously. Cells suspended in the nutrient medium were transferred into 96-well microtiter plates (density 1.5 × 10^4 per well), and preincubated for 24 h (37 °C, 5% CO2). Then, the culture medium was replaced with the medium containing different concentrations of 1 or 2 (1–100 μg/mL). After 24 h of incubation, viability of the cells was determined using colorimetric lactate dehydrogenase (LDH) assay, in comparison to the controls to which corresponding aliquots of MeOH diluted with culture media were added. Cells grown in the medium without the tested compounds were used as control I (negative) and the positive control (control II) was obtained by incubation of the cells in the medium containing 1% Triton X-100. LDH released from the damaged cells into the cell culture medium was quantified by measuring the absorbance at 490 nm using Synergy II Biotek (BioTek Instruments, Winooski, VT, USA) microplate reader. Cytotoxicities of the examined compounds were calculated as follows: [(absorbance of the tested sample − absorbance of control I)/(absorbance of control II − absorbance of control I)] × 100. Results were means of three independent measurements (± SD). Doxorubicin (Ebewe Pharma GmbH., Unterach, Austria) was used as a reference cytostatic drug. The IC50 values were determined by plotting the percentage viability of the cells versus concentration and the adequate calculations made using AAT Bioquest website program (https://www.aatbio.com/tools/ic50-calculator, accessed on 29 October 2021).

[2] = system: DU145 human prostate carcinoma cells; experiment: Cytotoxicity, LDH assay, DU145 cells; conditions: Homo sapiens, DU-145, 24 h, 24 h treatment, 5–100 μg/mL
Procedure: as §1, §2, §3

[3] = system: PC3 human prostate adenocarcinoma cells; experiment: Cytotoxicity, LDH assay, PC3 cells; conditions: Homo sapiens, PC-3, 24 h, 24 h treatment, 5–100 μg/mL
Procedure: as §1, §2, §3

[4] = system: A375 human malignant melanoma cells; experiment: Cytotoxicity, LDH assay, A375 cells; conditions: Homo sapiens, A-375; 24 h treatment, 5–100 μg/mL
Procedure: as §1, §2, §3

[5] = system: HT29 human colon adenocarcinoma cells; experiment: Cytotoxicity, LDH assay, HT29 cells; conditions: Homo sapiens, HT-29; 24 h treatment, 5–100 μg/mL
Procedure: as §1, §2, §3

[6] = system: Caco-2 human colon adenocarcinoma cells; experiment: Cytotoxicity, LDH assay, Caco-2 cells; conditions: Homo sapiens, Caco-2, 24 h, 24 h treatment, 5–100 μg/mL
Procedure: as §1, §2, §3

COc1cccc2c1C(=O)c1c(O)c3c(c(O)c1C2=O)C[C@@](O)(C(=O)CO)C[C@@H]3O[C@H]1C[C@H](N)[C@H](O)[C@H](C)O1 [Doxorubicin, reference compound]
IC50 [1]: 1.38 µg/mL
IC50 [2]: 3.18 µg/mL
IC50 [3]: > 50 µg/mL
IC50 [4]: 0.59 µg/mL
IC50 [5]: 1.53 µg/mL
IC50 [6]: 3.44 µg/mL
